“And” between values parts separate entries of the source, which are not always exact repeats. Equal values may be shown once.
Assays:
[1] = cited from earlier work
[2] = tested on: advanced solid tumors; test: Tumor response; assay type: in vivo, human
[3] = Steady-state plasma triapine; assay type: in vivo, human; conditions: for clearance: human, plasma
[4] = tested on: tumor cell lines; conditions: read-out: in vitro IC50 for tumor cell lines; cited from earlier work
[5] = tested on: human ribonucleotide reductase M2 subunit (hRRM2); test: Circulating serum hRRM2 by ELISA; assay type: in vivo; conditions: during treatment cycles 1 and 2, 21 of 28 patients
[6] = tested on: patients with advanced solid tumors; test: Phase I dose escalation: dose-limiting toxicities, MTD and adverse events
[7] = triapine 0.01–1 mg/mL in 0.9 % sodium chloride, protected from light, room temperature or 2–8°C; cited from earlier work
[8] = tested on: patients with advanced solid tumors; conditions: human, in vivo, 4 weeks
[9] = of 15 patients with stable disease
[10] = of 30 evaluable patients, triapine + FDR gemcitabine
[11] = of 30 evaluable patients, triapine + FDR gemcitabine, RECIST 1.0
[12] = Arm A and B combined, dose 160, N=2, individual values
[13] = 36 patients, all dose levels, triapine + FDR gemcitabine

SMILES: Nc1ccn([C@@H]2O[C@H](CO)[C@@H](O)C2(F)F)c(=O)n1 [gemcitabine]
- steady-state plasma levels ([1]; gemcitabine at fixed-dose-rate 10 mg/m^2/min): 15 to 20 µmol/L
- plasma gemcitabine concentration above which dFdCTP accumulation is saturated ([1]; peripheral blood mononuclear cells and circulating leukemic blasts): 15 to 20 µmol/L

SMILES: NC(=S)NN=Cc1ncccc1N [triapine, 3-Aminopyridine-2-carboxaldehyde thiosemicarbazone]
- median time to progression ([2]; 15 patients with stable disease, 95 % CI 84–115 days): 111 days
- disease control rate ([2]; 30 evaluable patients, SD + PR, triapine + FDR gemcitabine): 53%
- patients with prolonged stable disease more than 3 months [2, 9]: 12 patients
- stable-disease patients who had previously progressed on gemcitabine [2, 9]: 7 patients
- partial response (number of patients) [2, 10]: 1 patients
- progressive disease (number of patients) [2, 10]: 14 patients
- stable disease (number of patients) [2, 10]: 15 patients
- partial response [2, 11]: 3%
- stable disease [2, 11]: 50%
- median time to tumor progression ([2]; patients with SD): ~4 months
- Css ([3]; Arm A and B combined, 31 patients, 75 to 160 mg over 24-hour i.v. infusion Day 1, mean ± SD): 400 ± 140 nM
- Css ([3]; Arm A and B combined, dose 75, N=5, mean ± SD): 370 ± 50 nM
- Css ([3]; Arm A and B combined, dose 90, N=15, mean ± SD): 380 ± 180 nM
- Css ([3]; Arm A and B combined, dose 120, N=9, mean ± SD): 440 ± 120 nM
- CL [3, 12]: 42.80 L/h
- Css [3, 12]: 520 nM and 460 nM
- Css (range) ([3]; Arm A, 75 to 160 mg): 240 to 820 nM
- Css ([3]; Arm A, all doses 75 to 160 mg, mean ± SD): 430 ± 140 nM
- Css ([3]; Arm A, dose 75 (head prints mg/m^2), 24-h i.v. infusion, day 1 cycle 1, N=1): 410 nM
- Css ([3]; Arm A, dose 90, 24-h i.v. infusion, N=5, mean ± SD): 450 ± 230 nM
- Css ([3]; Arm A, dose 120, 24-h i.v. infusion, N=5, mean ± SD): 390 ± 90 nM
- Css ([3]; Arm A, dose 160, 24-h i.v. infusion, N=2, individual values): 520 nM and 460 nM
- CL ([3]; Arm A, dose 160, N=2, individual values): 42.80 L/h
- Css (range) ([3]; Arm B, 75 to 120 mg): 190 to 720 nM
- Css ([3]; Arm B, all doses 75 to 120 mg, mean ± SD): 380 ± 140 nM
- Css ([3]; Arm B, dose 75, 24-h i.v. infusion, N=4, mean ± SD): 360 ± 50 nM
- Css ([3]; Arm B, dose 90, 24-h i.v. infusion, N=10, mean ± SD): 350 ± 150 nM
- Css ([3]; Arm B, dose 120, 24-h i.v. infusion, N=4, mean ± SD): 470 ± 170 nM
- mean Css ([3]; females, n = 18): 440 ± 160 nM
- clearance ([3]; intravenous, 75 mg, CL, Arm B, dose 75, N=4, mean ± SD): 431 mL/min
- clearance ([3]; intravenous, 90 mg, CL, Arm A, dose 90, N=5, mean ± SD): 497 mL/min
- clearance ([3]; intravenous, 90 mg, CL, Arm B, dose 90, N=10, mean ± SD): 613 mL/min
- clearance ([3]; intravenous, 120 mg, CL, Arm A and B combined, dose 120, N=9, mean ± SD): 596 mL/min
- clearance ([3]; intravenous, 120 mg, CL, Arm A, dose 120, N=5, mean ± SD): 653 mL/min
- clearance ([3]; intravenous, 120 mg, CL, Arm B, dose 120, N=4, mean ± SD): 560 mL/min
- clearance ([3]; intravenous, 160 mg, CL, Arm A, dose 160, N=2, individual values): 635 mL/min
- clearance ([3]; intravenous, CL (range), Arm A and B combined, 31 patients, 75 to 160 mg): 226 to 899 mL/min
- clearance ([3]; intravenous, CL (range), Arm A, 75 to 160 mg): 226 to 804 mL/min
- clearance ([3]; intravenous, CL (range), Arm B, 75 to 120 mg): 265 to 899 mL/min
- clearance ([3]; intravenous, CL, Arm A, all doses 75 to 160 mg, mean ± SD): 580 mL/min
- clearance ([3]; intravenous, CL, Arm B, all doses 75 to 120 mg, mean ± SD): 561 mL/min
- clearance ([3]; iv, CL, Arm A and B combined, 31 patients, 75 to 160 mg over 24-hour i.v. infusion Day 1, mean ± SD): 562 mL/min
- mean Css ([3]; males, n = 13): 330 ± 80 nM
- variability of Css and CL (coefficient of variation) ([3]; within and between dose groups): approximately 30%
- IC50 [4]: 1000 to 2000 nM
- patients with decline in hRRM2 levels [5]: 75%
- Flu-Like Syndrome, Grade 1/2 [6, 13]: 4 (11) N (%)
- Flu-Like Syndrome, Grade 3 [6, 13]: 0 N (%)
- Flu-Like Syndrome, Grade 4 [6, 13]: 0 N (%)
- Infection, Grade 3 [6, 13]: 3 (8) N (%)
- Infection, Grade 4 [6, 13]: 0 N (%)
- MTD (maximum tolerated dose) ([6]; triapine 24-hour infusion immediately followed by gemcitabine 1000 mg/m^2 (100-minute infusion), every 2 weeks of a 4-week cycle): 90 mg
- stability of admixture [7]: 96 h
- recommended phase II dose (RP2D) [8]: 90 mg
